# Assay results reported in patent US20160250277A1, “[…] OPIOID RECEPTOR AGONISTS FOR PREVENTING, INHIBITING OR TREATING NAUSEA AND VOMITING” (CARA THERAPEUTICS, INC., priority 2013, published 2016).
# Experiments:
# [1] = test system: patients undergoing laparoscopic hysterectomy; conditions: human, in vivo
# human subjects = conditions: in vivo
# [2] = test system: patients following bunionectomy surgery; conditions: human, in vivo
# [3] = test system: acute and chronic visceral, inflammatory and neuropathic pain; assay: standard preclinical pain models; assay type: in vivo
# Method: (§1) The analgesic effect of CR845 was recordable within 15 minutes post-administration and lasted for up to 18 hours following single-dose administration.
# [4] = test system: “Chung Model” of neuropathic pain; assay: “Chung Model” of neuropathic pain (paw withdrawal threshold); assay type: in vivo, rats; conditions: for blockade of CR845 effect by kappa antagonist into injured paw: intraplantar 0.2 mg, 15 min prior to CR845 1 mg/kg, rats
# Method: FIG. 1: Efficacy of CR845 in “Chung Model” of neuropathic pain is blocked with Peripheral (Intrapaw) administration of a kappa antagonist (norBNI) in rats. *** denotes p<0.001 compared to vehicle-treated controls (two-way ANOVA). Vehicle or Nor-BNI was administered intraplantarly (0.2 mg) 15 min prior to CR845. Injection (1 mg/kg). N=6 male rats/group, mean±SEM.
# The peripheral mechanism of action of CR845 is supported preclinically by both biochemical in vitro assays and in vivo functional pharmacological studies. […] Moreover, in standard preclinical pain models, such as the “Chung Model” of neuropathic pain, the analgesic action of CR845 was blocked with kappa opioid receptor antagonists administered directly to the local site of injury, indicating a peripheral site of action for CR845 (FIG. 1). In the “Chung Model”, neuropathic pain is induced experimentally by ligating spinal nerves mediating sensation for a hind limb. […] Sets of different thickness filaments are used to test sensitivity, each of which is designed to produce a given force (in grams) upon bending after contact. By testing with these filaments, the minimum force to evoke a withdrawal response defines the paw withdrawal threshold. The nerve injury produces a marked reduction in paw withdrawal thresholds (increased sensitivity to force) in response to probing with the filaments.
# [5] = test system: pro-inflammatory mediators; assay: production and release of pro-inflammatory mediators; conditions: preclinical
# Method: as §1
# [6] = pharmacokinetic studies, drug in extracted brain tissue; assay type: in vivo; conditions: animals, analgesic and supra-analgesic doses
compound,measurement,setting,value
"CC(C)C[C@@H](NC(=O)[C@@H](Cc1ccccc1)NC(=O)[C@H](N)Cc1ccccc1)C(=O)N[C@H](CCCCN)C(=O)N1CCC(N)(C(=O)O)CC1 [CR845, D-Phe-D-Phe-D-Leu-D-Lys-[ω(4-aminopiperidine-4-carboxylic acid)]-OH]","PID for 0-4, 0-8 and 0-16 hour time intervals vs Placebo/Placebo",[1],statistically significant improvements
same,Responders in global evaluation of study medication vs placebo,[1],higher percentage of patients
same,"SPID over 0-8, 0-12 and 0-16 time periods vs Placebo/Placebo",[1],reduced pain intensity compared to the Placebo/Placebo group in a statistically significant manner
same,greater reduction in pain intensity at 24 hours vs Placebo/Placebo,[1],approximately 60%
same,improvement in mean SPID values 0-4 hour vs Placebo/Placebo,[1],3.5 fold
same,mean TOTPAR0-2 (pain relief within first 2 hours) vs Placebo/Placebo,[1],statistically superior pain relief
same,mean TOTPAR 0-12 hour interval vs Placebo/Placebo,[1],reached statistical significance
same,mean TOTPAR scores across all intervals vs Placebo/Placebo,[1],numerically superior
same,pain intensity for 0-8 and 0-16 hour time intervals vs Placebo/Placebo,[1],statistically significant decreases in pain intensity
same,patients who experienced nausea,[1],26.1%
same,patients who experienced vomiting,[1],1.7%
same,pruritus reported vs placebo,[1],less pruritus
same,reduction of incidence of nausea vs placebo,[1],approximately 50%
same,reduction of incidence of vomiting vs placebo,[1],~80%
same,"reported pain relief (TOTPAR) for 0-4, 2-4 and 0-8 hour time periods",[1],statistically significant improvements in reported pain relief
same,mean PID from baseline at each time interval vs Placebo/Placebo,[1]; iv,numerically superior
same,"blood sodium increase (hypernatremia), share of total patients","[1]; iv, 0.04 mg/kg",14%
same,drug-related respiratory depression,human subjects,no evidence of drug-related respiratory depression
same,SPID0-36 vs placebo,[2],statistically significant
same,SPID0-48 vs placebo,[2],statistically significant
same,"SPID scores 0-24, 0-36, 0-48 vs placebo",[2],Numerical improvements in SPID scores
same,acute psychiatric side effects,[2],no evidence of acute psychiatric side effects
same,cases of somnolence reported,[2],seven
same,mean PID from baseline at each time interval across 48 hours vs placebo,[2],numerically superior
same,mean plasma sodium concentration vs normal range,[2],not outside the normal physiological range
same,most frequent TEAEs (greater than 10%),[2],transient facial tingling and somnolence
same,pain intensity differences 0-12 hour time interval vs placebo,[2],Statistically significant reductions in pain intensity differences
same,pain intensity differences 0-36 hour time interval vs placebo,[2],Statistically significant reductions in pain intensity differences
same,reduction of incidence of nausea vs placebo,[2],60%
same,reduction of incidence of vomiting vs placebo,[2],80%
same,rise of mean plasma sodium concentration from baseline,[2],approximately 3%
same,SPID0-24 vs placebo,"[2]; iv, 0.005 mg/kg",statistically significant reduction in pain intensity compared to placebo
same,duration of analgesic effect,[3]; following single-dose administration,up to 18 hours
same,onset of analgesic effect post-administration,[3]; preclinical pain models,≤ 15 min
same,attenuation of pain in preclinical pain models,[3]; standard preclinical pain models,"successfully attenuated acute and chronic visceral, inflammatory and neuropathic pain in a dose-dependent manner"
same,paw withdrawal threshold (neuropathic pain),"[4]; I.V. CR845 1 mg/kg, male rats",reduces this neuropathic pain as demonstrated by a subsequent increase in the withdrawal threshold
same,production and release of pro-inflammatory mediators,[5],decreased the production and release of pro-inflammatory mediators
same,concentration of drug in extracted brain tissue,[6],no measurable concentrations of drug in extracted brain tissue
"Oc1ccc2c3c1O[C@H]1c4[nH]c5c(c4C[C@@]4(O)[C@@H](C2)N(CC2CC2)CC[C@]314)C[C@@]1(O)[C@H]2Cc3ccc(O)c4c3[C@@]1(CCN2CC1CC1)[C@H]5O4 [nor-BNI, nor-binaltorphamine]",blockade of CR845 effect by kappa antagonist into injured paw,[4],significantly reduces the effect of CR845
same,blockade of CR845 effect by kappa antagonist into injured paw,[4]; listed as norBNI,blocked
